Patent US12012411B2, “Viral replication inhibitors” (Katholieke Universiteit Leuven, priority 2011, dated 2024)
pEC50: −log10 of the molar value. Where two headings read alike, the source gives them in different places.

Legend:
DENV-2 NGC = assay: Antiviral activity against DENV-2 NGC in Vero-B cells (viral RNA load by RT-qPCR); format: cell-based, Dengue virus; conditions: DENV-2 in Vero-B cells, inhibition of viral RNA replication by 50% (Table 3)
in vitro = conditions: African green monkey; for CC50 at 4 days: uninfected quiescent Vero-B cells
[1] = system: DENV-1 Djibouti strain D1/H/IMTSSA/98/606; assay: Antiviral activity against DENV-1 in Vero-B cells (viral RNA load by RT-qPCR); format: cell-based, Dengue virus
[2] = system: DENV-3 strain H87 prototype; assay: Antiviral activity against DENV-3 in Vero-B cells (viral RNA load by RT-qPCR); format: cell-based, Dengue virus
[3] = system: DENV-4 strain Dak HD 34 460; assay: Antiviral activity against DENV-4 in Vero-B cells (viral RNA load by RT-qPCR); format: cell-based, Dengue virus; conditions: Dengue virus, DENV4, Vero B

Structure (SMILES)	pEC50 (DENV-2 NGC; Dengue virus, DENV2, Vero B)	CC50 at 4 days (in vitro) [nM]	pEC50 ([1]; Dengue virus, DENV1, Vero B)	pEC50 ([2]; Dengue virus, DENV3, Vero B)	pEC50 [3]	CC50 (in vitro) [nM]	pEC50 (DENV-2 NGC)	pEC50 [1]	pEC50 [2]
COc1cc(NC(C(=O)c2c[nH]c3ncc(F)cc23)c2ccccc2)cc(OC)c1 (stereo not drawn) [CPD-234]	7.30	15000	6.12	5.70	5.38	–	–	–	–
COc1cccc(NC(C(=O)c2cn(CCO)c3cc(F)ccc23)c2ccccc2)c1 (stereo not drawn) [CPD-245]	7.10	–	6.15	5.62	5.52	16000	–	–	–
COc1cccc(NC(C(=O)c2nn(C)c3cc(F)ccc23)c2ccccc2)c1 (stereo not drawn) [CPD-281]	6.68	> 128000	6.07	5.25	5.95	–	–	–	–
COc1cccc(NC(C(=O)c2c[nH]c3ccccc23)c2cncc(F)c2)c1 (stereo not drawn) [CPD-321]	6.96	33000	6.40	6.49	5.56	–	–	–	–
COc1cncc(NC(C(=O)c2c[nH]c3cc(F)ccc23)c2ccccc2)c1 (stereo not drawn) [CPD-157]	7.30	15000	5.88	6.07	5.29	–	–	–	–
COc1cc(CO)cc(NC(C(=O)c2c[nH]c3ccccc23)c2cnc(OC)cn2)c1 (stereo not drawn) [CPD-288]	6.92	77000	5.72	5.57	5.20	–	–	–	–
COc1cccc(NC(C(=O)c2c[nH]c3c(C)cccc23)c2ccc(OC)nc2)c1 (stereo not drawn) [CPD-332]	7.40	20000	6.14	5.87	5.55	–	–	–	–
COc1cc(NC(C(=O)c2c[nH]c3ccccc23)c2ccc(OC)nc2)cc(OCCO)c1 (stereo not drawn) [CPD-291]	7.22	53000	6.10	6.10	5.06	–	–	–	–
COc1cccc(NC(C(=O)c2c[nH]c3ccccc23)c2ccc(C#N)nc2)c1 (stereo not drawn) [CPD-314]	6.68	50000	5.77	5.55	5.06	–	–	–	–
COc1cccc(NC(C(=O)c2c[nH]c3c(F)cccc23)c2cccnc2)c1 (stereo not drawn) [CPD-153]	6.54	> 133000	5.20	5.65	5.43	–	–	–	–
COc1cccc(NC(C(=O)c2nn(C)c3ccccc23)c2ccc(C#N)cc2)c1 (stereo not drawn) [CPD-260]	7.10	> 126000	5.18	4.65	5.26	–	–	–	–
COc1cccc(NC(C(=O)c2c[nH]c3ccccc23)c2cn3ccccc3n2)c1 (stereo not drawn) [CPD-030]	7.05	> 126000	5.32	5.20	4.88	–	–	–	–
COc1cccc(NC(C(=O)c2cn(C)c3ccc(F)cc23)c2ccccc2)c1 (stereo not drawn) [CPD-137]	7.30	> 128000	6.17	5.42	5.56	–	–	–	–
COc1cc(NC(C(=O)c2c[nH]c3ccccc23)c2ccc(C#N)cc2)cc(OC)c1 (stereo not drawn) [CPD-233]	8.00	11000	6.66	5.89	5.51	–	–	–	–
COc1cccc(NC(C(=O)c2c[nH]c3cc(F)ccc23)c2ccc(OC)nc2)c1 (stereo not drawn) [CPD-213]	7.22	15000	6.09	5.60	5.55	–	–	–	–
COc1cccc(NC(C(=O)c2c[nH]c3ccc(S(C)(=O)=O)cc23)c2ccccc2)c1 (stereo not drawn) [CPD-229]	5.62	> 115000	5.55	4.37	5.12	–	–	–	–
COc1cc(NC(C(=O)c2nn(C)c3ccccc23)c2cccnc2)cc(OC)c1 (stereo not drawn) [CPD-279]	6.74	> 124000	6.21	6.05	5.06	–	–	–	–

Structure (SMILES)	pEC50 (DENV-2 NGC; Dengue virus, DENV2, Vero B)	CC50 at 4 days (in vitro) [nM]	pEC50 ([1]; Dengue virus, DENV1, Vero B)	pEC50 ([2]; Dengue virus, DENV3, Vero B)	pEC50 [3]	CC50 (in vitro) [nM]	pEC50 (DENV-2 NGC)	pEC50 [1]	pEC50 [2]
CN(C)C(=O)c1cccc(NC(C(=O)c2c[nH]c3ccccc23)c2ccccc2)c1 (stereo not drawn) [CPD-051]	5.61	> 125000	5.24	4.62	4.49	–	–	–	–
COc1cc(NC(C(=O)c2c[nH]c3ccccc23)c2ccccc2)cnc1OC (stereo not drawn) [CPD-256]	6.72	83000	5.17	5.35	4.70	–	–	–	–
COc1cc(CO)cc(NC(C(=O)c2c[nH]c3ccccc23)c2ccc(OC)nc2)c1 (stereo not drawn) [CPD-283]	6.77	56000	5.55	5.15	5.10	–	–	–	–
COc1cc(NC(C(=O)c2c[nH]c3ccccc23)c2ccccc2)ccn1 (stereo not drawn) [CPD-045]	7.22	> 139000	6.19	6.06	4.96	–	–	–	–
COc1cc(NC(C(=O)c2cn(CCO)c3ccccc23)c2ccccc2)cc(OC)c1 (stereo not drawn) [CPD-148]	7.15	–	5.78	5.26	5.54	44000	–	–	–
COc1cccc(NC(C(=O)c2c[nH]c3ccccc23)c2ccc(OC)nc2)c1 (stereo not drawn) [CPD-055]	7.15	50000	5.73	5.47	5.35	–	–	–	–
COc1ccc(C(Nc2cccc(OC)c2)C(=O)c2c[nH]c3ccccc23)nc1 (stereo not drawn) [CPD-310]	7.22	25000	5.95	6.19	5.03	–	–	–	–
COc1cncc(NC(C(=O)c2c[nH]c3ccc(F)cc23)c2ccc(OC)nc2)c1 (single isomer, unassigned) [CPD-322]	–	51000	–	–	5.52	–	7.70	6.52	6.49
COc1cccc(NC(C(=O)c2c[nH]c3ccccc23)c2cnc(OC)cn2)c1 (stereo not drawn) [CPD-249]	7.00	53000	5.95	5.34	5.70	–	–	–	–
COc1cccc(NC(C(=O)c2c[nH]c3c(Cl)cccc23)c2ccccc2)c1 (stereo not drawn) [CPD-084]	7.52	> 127000	> 6.30	5.62	5.51	–	–	–	–
COc1cc(NC(C(=O)c2nn(C)c3ccccc23)c2ccccc2)cc(OCCO)c1 (stereo not drawn) [CPD-298]	6.38	> 116000	5.69	5.24	5.34	–	–	–	–
COc1cc(NC(C(=O)c2nn(C)c3ccccc23)c2ccccc2)cc(OC)c1 (stereo not drawn) [CPD-265]	7.70	> 124000	6.54	5.79	5.31	–	–	–	–
COc1cc(NC(C(=O)c2c[nH]c3nc(C)ccc23)c2ccccc2)cc(OC)c1 (stereo not drawn) [CPD-232]	7.00	> 125000	6.07	5.57	5.94	–	–	–	–
COc1cccc(NC(C(=O)c2c[nH]c3c(C)cccc23)c2cc3ccccn3n2)c1 (stereo not drawn) [CPD-329]	8.00	41000	6.57	6.49	5.53	–	–	–	–
COc1cc(CO)cc(NC(C(=O)c2nn(C)c3ccccc23)c2ccccc2)c1 (stereo not drawn) [CPD-278]	6.57	> 125000	5.55	4.88	5.24	–	–	–	–
COc1cc(CO)cc(NC(C(=O)c2c[nH]c3ccccc23)c2cccnc2)c1 (stereo not drawn) [CPD-282]	6.59	> 128000	5.91	5.51	4.88	–	–	–	–
